According to ChEMBL document CHEMBL4342418, “1,2,3-Triazole-containing hybrids as potential anticancer agents: Current developments, action mechanisms and structure-activity relationships” (Eur J Med Chem, 2019):

What was measured:
A549 [1] = assay: cells; type: functional, cell-based; details: Homo sapiens
Description: Antiproliferative activity against human A549 cells by MTT assay

HBL-100 = assay: Antiproliferative activity against human HBL100 cells by MTT assay; type: functional, cell-based
HeLa [2] = assay: Antiproliferative activity against human HeLa cells by MTT assay; type: functional, cell-based
SW1573 = assay: Antiproliferative activity against human SW1573 cells by MTT assay; type: functional, cell-based
T47D = assay: Antiproliferative activity against human T47D cells by MTT assay; type: functional, cell-based
WiDr = assay: Antiproliferative activity against human WiDr cells by MTT assay; type: functional, cell-based
K562 = assay: Antiproliferative activity against human K562 cells assessed as reduction in cell viability after 24 hrs by MTT assay; type: functional, cell-based; details: K562, 24 h
PC-3 = assay: Antiproliferative activity against human PC3 cells assessed as reduction in cell viability after 24 hrs by MTT assay; type: functional, cell-based; details: PC-3, 24 h
A-431 = assay: Antiproliferative activity against human A431 cells assessed as reduction in cell viability after 24 hrs by MTT assay; type: functional, cell-based; details: A-431, 24 h
MDA-MB-231 [3] = assay: Antiproliferative activity against human MDA-MB-231 cells assessed as reduction in cell viability after 24 hrs by MTT assay; type: functional, cell-based; details: MDA-MB-231, 24 h
COLO 205 = assay: Antiproliferative activity against human COLO205 cells assessed as reduction in cell viability after 24 hrs by MTT assay; type: functional, cell-based; details: COLO 205, 24 h
A549 [4] = assay: Antiproliferative activity against human A549 cells assessed as reduction in cell viability after 24 hrs by MTT assay; type: functional, cell-based; details: A549, 24 h
MCF7 [5] = assay: Antiproliferative activity against human MCF7 cells assessed as reduction in cell viability after 48 hrs by SRB assay; type: functional, cell-based; details: MCF7, 48 h
HeLa [6] = assay: Antiproliferative activity against human HeLa cells assessed as reduction in cell viability after 48 hrs by SRB assay; type: functional
HepG2 [7] = assay: Antiproliferative activity against human HepG2 cells assessed as reduction in cell viability after 48 hrs by SRB assay; type: functional; details: HepG2, 48 h
IMR-32 = assay: Antiproliferative activity against human IMR32 cells assessed as reduction in cell viability after 48 hrs by SRB assay; type: functional; details: IMR-32, 48 h
MCF7 [8] = assay: cells; type: functional, cell-based; details: Homo sapiens
Description: Antiproliferative activity against human MCF7 cells by MTT assay

MDA-MB-231 [9] = assay: Antiproliferative activity against human MDA-MB-231 cells by MTT assay; type: functional, cell-based
MCF-10A = assay: Cytotoxicity against human MCF10A cells by MTT assay; type: cell-based
Lu1 = assay: Antiproliferative activity against human Lu1 cells by MTT assay; type: functional, cell-based
HL-60 = assay: Antiproliferative activity against human HL60 cells by MTT assay; type: functional, cell-based
P388 = assay: Antiproliferative activity against mouse P388 cells by MTT assay; type: functional, cell-based
HepG2 [10] = assay: Antiproliferative activity against human HepG2 cells by MTT assay; type: functional, cell-based
KB = assay: Antiproliferative activity against human KB cells by MTT assay; type: functional, cell-based

COC(=O)c1coc([C@H](Cc2ccccc2)n2cc(CC3CC(O[Si](C)(C)C(C)(C)C)CC(C(C)C)C3)nn2)n1 (stereo partly drawn)
IC50 (A549 [1]): 3.1 to 88 µM
IC50 (HBL-100): 3.1 to 88 µM
IC50 (HeLa [2]): 3.1 to 88 µM
IC50 (SW1573): 3.1 to 88 µM
IC50 (T47D): 3.1 to 88 µM
IC50 (WiDr): 3.1 to 88 µM

CC(=O)c1ccc(-n2cc(CO[C@H]3O[C@@H]4O[C@@]5(C)O[C@]46[C@@H](CC[C@@H](C)[C@@H]6C[C@H]5O)[C@H]3C)nn2)cc1
IC50 (K562): 4.06 to 89.9 µM
IC50 (PC-3): 4.06 to 89.9 µM
IC50 (A-431): 4.06 to 89.9 µM
IC50 (MDA-MB-231 [3]): 4.06 to 89.9 µM
IC50 (COLO 205): 4.06 to 89.9 µM
IC50 (A549 [4]): 4.06 to 89.9 µM

COC(=O)c1coc(Cn2cc(CC3CC(CCc4ccccc4)CC(O[Si](C)(C)C(C)(C)C)C3)nn2)n1 (stereo not drawn)
IC50 (A549 [1]): 3.1 to 88 µM
IC50 (HBL-100): 3.1 to 88 µM
IC50 (HeLa [2]): 3.1 to 88 µM
IC50 (SW1573): 3.1 to 88 µM
IC50 (T47D): 3.1 to 88 µM
IC50 (WiDr): 3.1 to 88 µM

Fc1ccc(-n2ncc(OCc3cn(Cc4cccc(Cl)c4)nn3)c2-c2ccc(Cl)cc2)cc1
GI50 (MCF7 [5]): 1.8 to 9.7 µM
GI50 (HeLa [6]): 1.8 to 9.7 µM
GI50 (HepG2 [7]): 1.8 to 9.7 µM
GI50 (IMR-32): 1.8 to 9.7 µM

CCC(C)[C@@H](c1nc(C(=O)OC)co1)n1cc(CC2CC(CCc3ccccc3)CC(O[Si](C)(C)C(C)(C)C)C2)nn1 (stereo partly drawn)
IC50 (A549 [1]): 3.1 to 88 µM
IC50 (HBL-100): 3.1 to 88 µM
IC50 (HeLa [2]): 3.1 to 88 µM
IC50 (SW1573): 3.1 to 88 µM
IC50 (T47D): 3.1 to 88 µM
IC50 (WiDr): 3.1 to 88 µM

Cc1c(-n2nnc(-c3nn(-c4nncc5ccccc45)cc3C=O)c2C)cccc1C(F)(F)F
IC50 (MCF7 [8]): 6.8 to 27.6 µM
IC50 (MDA-MB-231 [9]): 6.8 to 27.6 µM
IC50 (MCF-10A): 21.9 to 25.3 µM

Cc1ccc(-n2cc(OCc3cn(Cc4ccccc4Cl)nn3)cn2)cc1
GI50 (MCF7 [5]): 1.8 to 9.7 µM
GI50 (HeLa [6]): 1.8 to 9.7 µM
GI50 (HepG2 [7]): 1.8 to 9.7 µM
GI50 (IMR-32): 1.8 to 9.7 µM

Fc1ccc(-n2ncc(OCc3cn(Cc4ccccc4)nn3)c2-c2ccc(Cl)cc2)cc1
GI50 (MCF7 [5]): 1.8 to 3.8 µM
GI50 (HeLa [6]): 1.8 to 3.8 µM
GI50 (HepG2 [7]): 1.8 to 3.8 µM
GI50 (IMR-32): 1.8 to 3.8 µM

CCCC1CC(Cc2cn(Cc3nc(C(=O)OC)co3)nn2)CC(O[Si](C)(C)C(C)(C)C)C1 (stereo not drawn)
IC50 (A549 [1]): 3.1 to 88 µM
IC50 (HBL-100): 3.1 to 88 µM
IC50 (HeLa [2]): 3.1 to 88 µM
IC50 (SW1573): 3.1 to 88 µM
IC50 (T47D): 3.1 to 88 µM
IC50 (WiDr): 3.1 to 88 µM

CCCC1CC(Cc2cn([C@H](c3nc(C(=O)OC)co3)C(C)CC)nn2)CC(O[Si](C)(C)C(C)(C)C)C1 (stereo partly drawn)
IC50 (A549 [1]): 3.1 to 88 µM
IC50 (HBL-100): 3.1 to 88 µM
IC50 (HeLa [2]): 3.1 to 88 µM
IC50 (SW1573): 3.1 to 88 µM
IC50 (T47D): 3.1 to 88 µM
IC50 (WiDr): 3.1 to 88 µM

C[C@H]1[C@@H](OCc2cn(-c3ccc(C#N)cc3)nn2)O[C@@H]2O[C@@]3(C)O[C@]24[C@H]1CC[C@@H](C)[C@@H]4C[C@H]3O
IC50 (K562): 4.06 to 89.9 µM
IC50 (PC-3): 4.06 to 89.9 µM
IC50 (A-431): 4.06 to 89.9 µM
IC50 (MDA-MB-231 [3]): 4.06 to 89.9 µM
IC50 (COLO 205): 4.06 to 89.9 µM
IC50 (A549 [4]): 4.06 to 89.9 µM

Cc1c(C(F)(F)F)cc(Cl)c(Cl)c1-n1nnc(-c2nn(-c3nncc4ccccc34)cc2C=O)c1C
IC50 (MCF7 [8]): 6.8 to 27.6 µM
IC50 (MDA-MB-231 [9]): 6.8 to 27.6 µM
IC50 (MCF-10A): 21.9 to 25.3 µM

O=[N+]([O-])c1ccc(Cn2cc(COc3cnn(-c4ccc(F)cc4)c3-c3ccc(Cl)cc3)nn2)cc1
GI50 (MCF7 [5]): 1.8 to 9.7 µM
GI50 (HeLa [6]): 1.8 to 9.7 µM
GI50 (HepG2 [7]): 1.8 to 9.7 µM
GI50 (IMR-32): 1.8 to 9.7 µM

CCCC1CC(Cc2cn([C@@H](Cc3ccccc3)c3nc(C(=O)OC)co3)nn2)CC(O[Si](C)(C)C(C)(C)C)C1 (stereo partly drawn)
IC50 (A549 [1]): 3.1 to 88 µM
IC50 (HBL-100): 3.1 to 88 µM
IC50 (HeLa [2]): 3.1 to 88 µM
IC50 (SW1573): 3.1 to 88 µM
IC50 (T47D): 3.1 to 88 µM
IC50 (WiDr): 3.1 to 88 µM

C[C@@H]1CC[C@H]2[C@@H](C)C(=O)O[C@@H]3O[C@@]4(C)CC[C@@H]1[C@]32OO4 [ARTEMISININ]
IC50 (K562): 39 to 68.8 µM
IC50 (PC-3): 39 to 68.8 µM
IC50 (A-431): 39 to 68.8 µM
IC50 (MDA-MB-231 [3]): 39 to 68.8 µM
IC50 (COLO 205): 39 to 68.8 µM
IC50 (A549 [4]): 39 to 68.8 µM

C[C@H]1[C@@H](O)O[C@@H]2O[C@@]3(C)CC[C@H]4[C@H](C)CC[C@@H]1[C@@]24OO3 [ARTENIMOL]
IC50 (MCF7 [8]): 39.9 to 84.3 µM
IC50 (Lu1): 39.9 to 84.3 µM
IC50 (HL-60): 39.9 to 84.3 µM
IC50 (P388): 39.9 to 84.3 µM
IC50 (K562): 42.4 to 52.6 µM
IC50 (PC-3): 42.4 to 52.6 µM
IC50 (A-431): 42.4 to 52.6 µM
IC50 (MDA-MB-231 [3]): 42.4 to 52.6 µM
IC50 (COLO 205): 42.4 to 52.6 µM
IC50 (A549 [4]): 42.4 to 52.6 µM
IC50 (HepG2 [10]): 63.7 µM
IC50 (KB): 95.3 µM

C[C@H]1[C@H](OC(=O)CCC(=O)O)O[C@@H]2O[C@@]3(C)CC[C@H]4[C@H](C)CC[C@@H]1[C@@]24OO3 [ARTESUNATE]
IC50 (HepG2 [10]): 59.4 µM
IC50 (KB): 78.5 µM

Cc1c2ccncc2c(C)c2c1[nH]c1ccccc12 [ELLIPTECINE]
IC50 (MCF7 [8]): 1.7 to 3.5 µM
IC50 (Lu1): 1.7 to 3.5 µM
IC50 (HL-60): 1.7 to 3.5 µM
IC50 (P388): 1.7 to 3.5 µM
IC50 (HepG2 [10]): 0.93 to 1.46 µM
IC50 (KB): 0.81 to 1.26 µM

Cc1cn([C@H]2C[C@H](N=[N+]=[N-])[C@@H](CO)O2)c(=O)[nH]c1=O [ZIDOVUDINE]
IC50 (HepG2 [10]): > 400 µM
IC50 (KB): > 400 µM
